The values that follow come from patent publication US20240390298A1, “CYCLOHEXYL BETA-HYDROXY ALKYL AMINES AND MEDICAL USES THEREOF” (ATROGI AB, priority 2021, published 2024).

Molecules are shown by their SMILES. Where a name gives a salt, the structure may show the parent alone.

Test [1] has as its system L6-myotubes. Kind of test: Glucose uptake in differentiated L6-myotubes (3H-2-deoxyglucose), compared to isoproterenol. The class given is cell-based. The following applies: agonist 1×10^−5 M, 50 nM 3H-2-deoxyglucose; for Emax at 10 µM: read-out: Biological example 1: glucose uptake, activity compared to that of isoproterenol. The method, then: (§1) L6-myoblasts were grown in Dulbecco's Modified Eagle's Medium (DMEM) containing 1 g/L glucose supplemented with 10% fetal bovine serum, 2 mM L-Glutamine, 50 U/mL penicillin, 50 μg/mL streptomycin and 10 mM HEPES. Cells were plated at 1×10^5 cells per mL in 24-well plates. After reaching 90% confluence the cells were grown in medium containing 2% FBS for 7 days where upon cells differentiated into myotubes.
Differentiated L6-myotubes were serum-starved overnight in medium containing 0.5% fatty-acid free BSA and stimulated with an agonist, with a final concentration of 1×10^−5 M. After 1 h 40 min the cells were washed with warm glucose free medium or PBS twice and another portion of agonist was added to the glucose free medium. After 20 min the cells were exposed to 50 nM ^3H-2-deoxyglucose for 10 min before washed with ice cold glucose free medium or PBS three times and lysed with 0.2 M NaOH, 400 μL/well, for 1 h at 60° C. The cell lysate was mixed with 4 mL scintillation buffer (Emulsifier Safe, Perkin Elmer) and the radioactivity was detected in a β-counter (Tri-Carb 4810TR, Perkin Elmer). The activity for each compound is compared to that of isoproterenol.

Test [2] has as its system L6-myotubes. Kind of test: Measurement of intracellular cAMP levels in differentiated L6 cells (alpha screen cAMP kit), compared to isoproterenol. The class given is cell-based. The following applies: agonist 1×10^−5 M, 15 min; for Emax at 10 µM: Rattus norvegicus, L6, 0.25 h, read-out: Biological example 2: intracellular cAMP levels, activity compared to that of isoproterenol. The procedure: as §1
Differentiated cells were serum-starved overnight and stimulated with an agonist, final concentration 1×10^−5 M, for 15 min in stimulation buffer (HBSS supplemented with 1% BSA, 5 mM HEPES and 1 mM IBMX, pH 7.4). The medium was aspirated and 100 μL of 95% EtOH was added to each well of the 24-well plate and cells were kept at −20° C. overnight. The EtOH was allowed to evaporate and 500 μL of lysis buffer (1% BSA, 5 mM HEPES and 0.3% Tween-20, pH 7.4) was added to each well. The plate was kept at −80° C. for 30 min and then at −20° C. until the day of detection when the samples were thawed. Intracellular cAMP levels were detected using an alpha screen cAMP kit (6760635D from Perkin Elmer). The activity for each compound is compared to that of isoproterenol.
(Cyclic AMP is a second messenger, typically raised through Gs and lowered through Gi signalling.)

Take `CCCS(=O)(=O)N[C@H]1CC[C@@H](CC(C)(C)NC[C@H](O)c2cccc(F)c2)CC1` [Example 171, N-((1S,4s)-4-(2-(((R)-2-(3-Fluorophenyl)-2-hydroxyethyl)amino)-2-methylpropyl)cyclohexyl)propane-1-sulfonamide hydrochloride]: the “Biological example 1: glucose uptake, activity compared to that of isoproterenol” value in the test with L6-myotubes [1] is reported as “+ + +”. Also, in the test with L6-myotubes [2], the Emax at 10 µM is < 25%.
In the case of `CC(=O)N[C@H]1CC[C@@H](CC(C)(C)NC[C@H](O)c2cccnc2C)CC1` [Example 143, N-((1S,4s)-4-(2-(((R)—H-hydroxy-2-(2-methylpyridin-3-yl)ethyl)amino)-2-methylpropyl)cyclohexyl)acetamide dihydrochloride], the “Biological example 1: glucose uptake, activity compared to that of isoproterenol” value with L6-myotubes [1] is reported as “+ + +”. In addition, in the test on L6-myotubes [2], the Emax at 10 µM is < 25%.
For `CC(C)(NC[C@H](O)c1cncc(F)c1)[C@H]1CC[C@H](O)CC1` [Example 40, (1R,4r)-4-(2-(((R)-2-(5-Fluoropyridin-3-yl)-2-hydroxyethyl)amino)propan-2-yl)cyclohexan-1-ol], in that order: “+ +” and < 25%.
Consider `CO[C@H]1CC[C@H](CNC[C@H](O)c2cccc(F)c2)CC1` [Example 3, (R)-1-(3-Fluorophenyl)-2-((((1r,4R)-4-methoxycyclohexyl)methyl)amino)-ethan-1-ol], for which the “Biological example 1: glucose uptake, activity compared to that of isoproterenol” value in the test with L6-myotubes [1] is reported as “+ +”. Further, the Emax at 10 µM in the test with L6-myotubes [2] is < 25%.
As for `CC(C)(C[C@H]1CC[C@H](NC(=O)C2CC2)CC1)NC[C@H](O)c1cccc(F)c1.Cl` [Example 156, N-((1R,4r)-4-(2-(((R)-2-(3-Fluorophenyl)-2-hydroxyethyl)amino)-2-methylpropyl)cyclohexyl)cyclopropanecarboxamide hydrochloride], the “Biological example 1: glucose uptake, activity compared to that of isoproterenol” value in the test with L6-myotubes [1] is given as “+ + +”. Also, the “Biological example 2: intracellular cAMP levels, activity compared to that of isoproterenol” value with L6-myotubes [2] is “+ + +”.
On to `CS(=O)(=O)N[C@H]1CC[C@@H](CNC[C@H](O)c2cccc(F)c2)CC1` [Example 77], for which the “Biological example 1: glucose uptake, activity compared to that of isoproterenol” value with L6-myotubes [1] is reported as “+ +”. In the test with L6-myotubes [2], the Emax at 10 µM was < 25%.
`CC(=O)N(C)[C@H]1CC[C@@H](CC(C)(C)NC[C@H](O)c2cccc(F)c2)CC1.Cl` [Example 180, N-((1S,4s)-4-(2-(((R)-2-(3-Fluorophenyl)-2-hydroxyethyl)amino)-2-methylpropyl)cyclohexyl)-N-methylacetamide hydrochloride]: the “Biological example 1: glucose uptake, activity compared to that of isoproterenol” value in the test on L6-myotubes [1] is listed as “+ +”. In addition, the Emax at 10 µM in the test with L6-myotubes [2] was < 25%.
The matching figures for `CNS(=O)(=O)[C@H]1CC[C@@H](CC(C)(C)NC[C@H](O)c2cccc(F)c2)CC1.Cl` [Example 192, (1S,4s)-4-(2-(((R)-2-(3-Fluorophenyl)-2-hydroxyethyl)amino)-2-methyl-propyl)-N-methylcyclohexane-1-sulfonamide hydrochloride]: “+ + +” and < 25%.
For the compound `CC(C)(C[C@H]1CC[C@@H](NC(=O)OC(C)(C)C)CC1)NC[C@H](O)c1cccc(C#N)n1` [Example 133, tert-Butyl ((1R,4s)-4-(2-(((5)-2-(6-Cyanopyridin-2-yl)-2-hydroxyethyl)-amino)-2-methylpropyl)cyclohexyl)carbamate], the “Biological example 1: glucose uptake, activity compared to that of isoproterenol” value in the test on L6-myotubes [1] is “+ +”. Also, the Emax at 10 µM with L6-myotubes [2] was < 25%.
For `CC(C)(CC[C@H]1CC[C@@H](C(=O)O)CC1)NC[C@H](O)c1cncc(F)c1` [Example 114, (1S,4s)-4-(3-(((R)-2-(5-Fluoropyridin-3-yl)-2-hydroxyethyl)amino)-3-methylbutyl)cyclohexane-1-carboxylic acid], in that order: “+ + +” and < 25%.
As to `CC(C)(C[C@H]1CC[C@@H](NS(=O)(=O)C(F)(F)F)CC1)NC[C@H](O)c1cccc(F)c1` [Example 172, 1,1,1-Trifluoro-N-((1S,4s)-4-(2-(((R)-2-(3-fluorophenyl)-2-hydroxyethyl)-amino)-2-methylpropyl)cyclohexyl)methanesulfonamide hydrochloride], the “Biological example 1: glucose uptake, activity compared to that of isoproterenol” value in the test on L6-myotubes [1] is reported as “+ +”. The Emax at 10 µM with L6-myotubes [2] was < 25%.
For `CC(=O)N[C@H]1CC[C@@H](CC(C)(C)NC[C@@H](O)c2cccc(C#N)n2)CC1` [Example 137, N-((1S,4s)-4-(2-(((R)-2-(6-Cyanopyridin-2-yl)-2-hydroxyethyl)amino)-2-methylpropyl)cyclohexyl)acetamide], in that order: “+ +” and < 25%.
With `CC(C)(NC[C@H](O)c1cccc(F)c1)[C@H]1CC[C@H](C(=O)O)CC1` [Example 101, (1R,4r)-4-(2-(((R)-2-(3-Fluorophenyl)-2-hydroxyethyl)amino)propan-2-yl)cyclohexane-1-carboxylic acid], the Emax at 10 µM with L6-myotubes [1] and in the test on L6-myotubes [2] was < 25% in each case.
In the case of `CC(C)(C[C@H]1CC[C@@H](NS(C)(=O)=O)CC1)NC[C@H](O)c1cncc(F)c1` [Example 177, N-((1S,4s)-4-(2-(((R)-2-(5-Fluoropyridin-3-yl)-2-hydroxyethyl)amino)-2-methylpropyl)cyclohexyl)methanesulfonamide], in the test with L6-myotubes [1], the “Biological example 1: glucose uptake, activity compared to that of isoproterenol” value is “+ + +”. Also, the Emax at 10 µM with L6-myotubes [2] is < 25%.
On to `CC(C)(C[C@H]1CC[C@@H](O)CC1)NC[C@H](O)c1cccc(F)c1.Cl` [Example 49, (1S,4s)-4-(2-(((R)-2-(3-Fluorophenyl)-2-hydroxyethyl)amino)-2-methylpropyl)cyclohexan-1-ol hydrochloride], for which the “Biological example 1: glucose uptake, activity compared to that of isoproterenol” value with L6-myotubes [1] was “+ +”. Also, the Emax at 10 µM in the test with L6-myotubes [2] is < 25%.
For the compound `CN(C)S(=O)(=O)[C@H]1CC[C@H](CC(C)(C)NC[C@H](O)c2cccc(F)c2)CC1.Cl` [Example 186, (1R,4r)-4-(2-(((R)-2-(3-Fluorophenyl)-2-hydroxyethyl)amino)-2-methyl-propyl)-N,N-dimethylcyclohexane-1-sulfonamide hydrochloride], the “Biological example 1: glucose uptake, activity compared to that of isoproterenol” value with L6-myotubes [1] was “+ + +”. Further, the “Biological example 2: intracellular cAMP levels, activity compared to that of isoproterenol” value in the test on L6-myotubes [2] was “+ +”.
With `O=C(N[C@H]1CC[C@@H](CNC[C@H](O)c2cccc(F)c2)CC1)c1ccccc1` [Example 75, N-((1S,4s)-4-((((R)-2-(3-Fluorophenyl)-2-hydroxyethyl)amino)methyl)-cyclohexyl)benzamide], the “Biological example 1: glucose uptake, activity compared to that of isoproterenol” value with L6-myotubes [1] is “+ +”. Moreover, the Emax at 10 µM with L6-myotubes [2] is < 25%.
With `CC(C)(CC[C@H]1CC[C@H](N)CC1)NC[C@H](O)c1cncc(F)c1` [Example 92, (R)-2-((4-((1r,4S)-4-Aminocyclohexyl)-2-methylbutan-2-yl)amino)-1-(5-fluoropyridin-3-yl)ethan-1-ol], the Emax at 10 µM was 25 to 50% in the test on L6-myotubes [1] and < 25% in the test on L6-myotubes [2].
The matching figures for `O=C(N[C@H]1CC[C@H](CNC[C@H](O)c2cncc(F)c2)CC1)c1ccccc1` [Example 70, N-((1R,4r)-4-((((R)-2-(5-Fluoropyridin-3-yl)-2-hydroxyethyl)amino)methyl)-cyclohexyl)benzamide]: 25 to 50% and < 25%.
On to `CC(=O)N[C@H]1CC[C@H](CC(C)(C)NC[C@H](O)c2cccc(C(F)(F)F)n2)CC1` [Example 151, N-((1S,4r)-4-(2-(((S)-2-Hydroxy-2-(6-(trifluoromethyl)pyridin-2-yl)-ethyl)amino)-2-methylpropyl)cyclohexyl)acetamide dihydrochloride], for which the “Biological example 1: glucose uptake, activity compared to that of isoproterenol” value in the test on L6-myotubes [1] was “+ + +”. Further, the Emax at 10 µM with L6-myotubes [2] was < 25%.
The matching figures for `CC(=O)N[C@H]1CC[C@H](C(C)(C)NC[C@H](O)c2cncc(F)c2)CC1` [Example 81, N-((1R,4r)-4-(2-(((R)-2-(5-Fluoropyridin-3-yl)-2-hydroxyethyl)amino)-propan-2-yl)cyclohexyl)acetamide]: “+ + +” and < 25%.
As for `O[C@@H](CNC[C@H]1CC[C@@H](OCc2ccccc2)CC1)c1cccc(F)c1` [Example 25, (R)-2-((((1s,4S)-4-(Benzyloxy)cyclohexyl)methyl)amino)-1-(3-fluoro-phenyl)ethan-1-ol], the Emax at 10 µM in the test with L6-myotubes [1] is 25 to 50%; in the test on L6-myotubes [2] it was < 25%.
The matching figures for `CC(C)(CC[C@H]1CC[C@H](C(=O)O)CC1)NC[C@H](O)c1cncc(F)c1` [Example 118, (1R,4r)-4-(3-(((R)-2-(5-Fluoropyridin-3-yl)-2-hydroxyethyl)amino)-3-methylbutyl)cyclohexane-1-carboxylic acid]: 25 to 50% and < 25%.
